In PMC9176790 (PLoS Pathogens, 2022):

Molecular target: RaaR (RSp0912) (Ralstonia pseudosolanacearum, UniProt Q8XRE2)
Assay: biochemical

Sequence of RaaR (RSp0912) (Q8XRE2 1-313 limits assumed): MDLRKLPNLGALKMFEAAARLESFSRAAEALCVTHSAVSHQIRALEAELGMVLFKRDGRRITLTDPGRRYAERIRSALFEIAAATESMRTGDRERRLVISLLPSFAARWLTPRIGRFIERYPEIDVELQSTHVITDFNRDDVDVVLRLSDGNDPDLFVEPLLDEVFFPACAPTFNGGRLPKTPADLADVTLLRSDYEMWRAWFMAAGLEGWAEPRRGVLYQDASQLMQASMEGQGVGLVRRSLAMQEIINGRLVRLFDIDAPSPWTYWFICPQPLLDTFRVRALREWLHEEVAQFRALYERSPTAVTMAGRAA

## Nc1ccccc1C(=O)O [anthranilic acid]
  Kd: 3.63 µM
